Source: patent US5326788A, “Biological fluid purification system” (priority 1992, dated 1994)

How the values were obtained:
[1] = tested on: HIV-1 env; experiment: Syncytia assay, cell line expressing only envelope proteins of HIV-1 IIIb with Supt-1 cells; type: cell-based; details: for syncytia score (number 0-4, size S/M/L): 24 hours
Procedure: (§1) In order to assess the effects of Hy and Ps on the ability of HIV to form syncytia, the following experiments were performed. For the analysis of HIV-1, an entry syncytia assay was performed by co-culturing H9 cells (described in Popovic, M. et al. Science 224: 497-500, 1984) infected with the IIIb isolate of HIV with uninfected Supt-1 cells (Walker, B. D. et al. Proc. Nat. Acad. Sci. (USA) 84: 8120-8124, 1987) as the target cell. HIV-2 was tested using HUT78 cells (obtained from the National Institute of Health by reference to Depository Catalog, Reagent Program, Bethesda, Md.) infected with the ROD-2 isolate of HIV-2 co-cultured with uninfected H9 target cells. The infected cells were plated in 96 well plates (10^4 cells per well in RPM1 1640 medium with 10% fetal calf serum) and incubated with or without dilutions of Ps or Hy for 30 minutes at 37° C. 1×10^5 target cells were then added per well and the number of syncytia were quantitatively and qualitatively determined after 24 hours.
Also tested in a syncytia assay was a constructed cell line expressing only the envelope proteins of HIV-1 type IIIb isolate (Walker, B. D. et al., supra). These cells, designated HIV-1 env in Table 6, were treated with the indicated concentrations of Ps or Hy and incubated with uninfected Supt-1 target cells as above.

[2] = tested on: HIV-2; experiment: Syncytia assay, HUT78 cells infected with ROD-2 isolate co-cultured with H9 cells; type: cell-based; details: 24 hours
Procedure: as §1

[3] = tested on: HIV-1; experiment: Syncytia assay, H9 cells infected with IIIb isolate of HIV co-cultured with Supt-1 cells; type: cell-based; details: 24 hours
Procedure: as §1

[4] = biological target: purified reverse transcriptase from murine leukemia virus (Moloney murine leukemia virus isolate Shinnick, UniProt P03355); experiment: Direct incubation with purified reverse transcriptase; type: biochemical
Procedure: (§2) In FIG. 1, open squares represent hypericin-treated and pluses represent pseudohypericin treated HIV. […] Inactivation of the reverse transcriptase activity of the virions was not a result of a direct inhibition of reverse transcriptase activity per se, as incubation of either compound directly with purified reverse transcriptase from either avian myeloblastosis virus or murine leukemia virus had no effect on enzyme activity. Furthermore, aliquots of HIV derived from these H9 cell cultures lost the ability to replicate in culture when exposed to as little as 0.77 micrograms/ml of hypericin.

[5] = tested on: purified reverse transcriptase from avian myeloblastosis virus; experiment: as above; type: biochemical
Procedure: as §2

Cc1cc(O)c2c(=O)c3c(O)cc(O)c4c5c(O)cc(O)c6c(=O)c7c(O)cc(C)c8c1c2c(c34)c(c78)c65 [hypericin] was tested, and the “syncytia score (number 0-4, size S/M/L)” value ([1]; 7 nanograms) was 4 L, the “syncytia score (number 0-4, size S/M/L)” value ([1]; 14 nanograms) was 4 L and the “syncytia score (number 0-4, size S/M/L)” value ([1]; 28 nanograms) was 4 L. The “syncytia score (number 0-4, size S/M/L)” value ([1]; 56 nanograms) was 4 L, the “syncytia score (number 0-4, size S/M/L)” value ([1]; 112 nanograms) was 3 M and the “syncytia score (number 0-4, size S/M/L)” value ([1]; 225 nanograms) was 0. For the same compound, the “syncytia score (number 0-4, size S/M/L)” value ([1]; 450 nanograms) was 0, the “syncytia score (number 0-4, size S/M/L)” value ([1]; 900 nanograms) was 0 and the “syncytia score (number 0-4, size S/M/L)” value ([1]; 1800 nanograms) was 0. The “inhibition of the viral entry process (comparison)” value ([1]; HIV-1 env cells and live virus assays) was “more effective than pseudohypericin”, the “syncytia score (number 0-4, size S/M/L)” value ([2]; 7 nanograms) was 4 L and the “syncytia score (number 0-4, size S/M/L)” value ([2]; 14 nanograms) was 4 L. For the same compound, the “syncytia score (number 0-4, size S/M/L)” value ([2]; 28 nanograms) was 4 L, the “syncytia score (number 0-4, size S/M/L)” value ([2]; 56 nanograms) was 3 M and the “syncytia score (number 0-4, size S/M/L)” value ([2]; 112 nanograms) was 1S. The “syncytia score (number 0-4, size S/M/L)” value ([2]; 225 nanograms) was 0, the “syncytia score (number 0-4, size S/M/L)” value ([2]; 450 nanograms) was 0 and the “syncytia score (number 0-4, size S/M/L)” value ([2]; 900 nanograms) was 0. The “syncytia score (number 0-4, size S/M/L)” value ([2]; 1800 nanograms) was 0, the “syncytia score (number 0-4, size S/M/L)” value ([3]; 7 nanograms) was 4 L and the “syncytia score (number 0-4, size S/M/L)” value ([3]; 14 nanograms) was 4 L. The “syncytia score (number 0-4, size S/M/L)” value ([3]; 28 nanograms) was 3 L, the “syncytia score (number 0-4, size S/M/L)” value ([3]; 56 nanograms) was 0 and the “syncytia score (number 0-4, size S/M/L)” value ([3]; 112 nanograms) was 0. For the same compound, the “syncytia score (number 0-4, size S/M/L)” value ([3]; 225 nanograms) was 0, the “syncytia score (number 0-4, size S/M/L)” value ([3]; 450 nanograms) was 0 and the “syncytia score (number 0-4, size S/M/L)” value ([3]; 900 nanograms) was 0. The “syncytia score (number 0-4, size S/M/L)” value ([3]; 1800 nanograms) was 0, the “effect on enzyme activity of purified reverse transcriptase” value [4] was “no effect” and the “effect on enzyme activity of purified reverse transcriptase” value [5] was “no effect”.
